Our source for the IC50 values is US20250313577A1, “TRICYCLIC PYRIDONES AND PYRIMIDONES” (ERASCA, INC, priority 2022, published 2025).

The structures appear in SMILES notation.

The target of the test is T1, KRAS G12C (Homo sapiens, UniProt P01116, G12C).
T1 construct: expressed in transfected cells; host or cells: Ras Initiative (RI) KRAS G12C cells
T1 sequence (P01116 1-188 isoform P01116-2 G12C): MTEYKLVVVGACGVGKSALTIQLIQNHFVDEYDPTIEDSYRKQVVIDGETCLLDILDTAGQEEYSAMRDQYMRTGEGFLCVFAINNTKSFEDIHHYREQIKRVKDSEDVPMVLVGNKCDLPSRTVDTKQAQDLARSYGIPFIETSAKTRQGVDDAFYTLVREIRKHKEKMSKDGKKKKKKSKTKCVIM
The experiment in a line: phospho-ERK HTRF assay in Ras Initiative (RI) KRAS G12C cells. In kind it is cell-based. The conditions noted are these: phospho-ERK1/2 HTRF, 11-point dose response from 2,500 nM, treatment for either 4 hours or 16 hours, read-out: pERK (RI). As for the experimental part:
Inhibition of KRAS G12C-Mediates Phospho-ERK1/2 Inhibition by Compounds of Formula I
This Example illustrates that various compounds of the present disclosure inhibit KRAS G12C thereby mediating the downstream inhibition of phospho-ERK1/2.
KRAS G12C mutant cell lines, NCI H358 (ATCC, CRL-5807), and Ras Initiative (R1) KRAS G12C were cultured according to published protocols and maintained at 37° C. in 5% CO2. The phospho-ERK HTRF assay was executed following provider's protocol (CisBio #64AERPEH). NCI-H358 or RI KRAS G12C cells were plated at a density of 50,000 cells per well in a 96-well plate (Corning #3903) in respective medias (for NCI-H358, RPMI+10% FBS+1% Pen/Strep, and for RI KRAS G12C, DMEM+10% FBS+1% Pen/Strep+4 ug/ml Blasticidin) and maintained at 37° C. in 5% CO2. Cells were allowed to adhere overnight and treated the following day with a Tecan D300e Digital Dispenser (Tecan Group Ltd., Switzerland) using an 11-point dose response starting at 2,500 nM of exemplified compounds followed by sequential 1:3 dilutions for either 4 hours or 16 hours. Following compound treatment, the cells were washed once with ice-cold PBS. Cells were lysed by adding 50 μl of lysis buffer (1×) supplemented with 1× Pierce Halt Protease and Phosphatase inhibitor and incubated for 30 minutes at 4° C. with shaking. After lysis, 16 μL of cell lysate from the 96-well cell-culture plate was transferred to a 384-well plate (Perkin Elmer #6007290). The premixed antibody solution was prepared by mixing (vol/vol) advanced phospho-ERK1/2 d2 antibody and advanced phospho-ERK1/2 Eu Cryptate antibody. The premixed antibody solution ([…]) was added to the detection plate containing cell lysate. The detection plate was incubated overnight at 4° C., the HTRF signal was read the next day by using either a Spectramax M5 or Spectramax i3 microplate reader (Molecular Devices, San Jose, CA, USA), and data was processed according to manufacturer's protocol.
Compounds prepared according to the preceding procedures and characterized for inhibition of p-ERK according to the protocol provided herein are summarized in Table 3: […]
As for `C=CC(=O)N1[C@H](C)CN(c2nc(=O)n3c4c(c(-c5ccc(F)cc5)c(C(F)(F)F)cc24)SC[C@@H](c2ccncc2F)C3)C[C@@H]1C` [Example 114, (S)-8-((3S,5R)-4-acryloyl-3,5-dimethylpiperazin-1-yl)-11-(4-fluorophenyl)-3-(3-fluoropyridin-4-yl)-10-(trifluoromethyl)-3,4-dihydro-2H,6H-[1,4]thiazepino[2,3,4-ij]quinazolin-6-one], the IC50 lay in the range of 0.5 to 2 nM.

For the compound `C=CC(=O)N1[C@H](C)CN(c2nc(=O)n3c4c(c(-c5ccc(F)cc5)c(C(F)(F)F)cc24)SC[C@@H](c2ccncc2)C3)C[C@@H]1C` [Example 113, (S)-8-((3S,5R)-4-acryloyl-3,5-dimethylpiperazin-1-yl)-11-(4-fluorophenyl)-3-(pyridin-4-yl)-10-(trifluoromethyl)-3,4-dihydro-2H,6H-[1,4]thiazepino[2,3,4-ij]quinazolin-6-one], the IC50 fell in the range of 0.5 to 2 nM.

Consider `C=CC(=O)N1[C@H](C)CN(c2nc(=O)n3c4c(c(-c5cc(Cl)c(F)cc5F)c(C(F)(F)F)cc24)SC[C@@H](c2ccncc2)C3)C[C@@H]1C` (single isomer, unassigned) [Example 100A], for which the IC50 is 2 to 20 nM.
